Experimental data reported in US20220273658A1, “SMALL MOLECULE LIVER X RECEPTOR MODULATORS AND USES THEREOF” (University of Houston System, priority 2019, published 2022).

Key:
MDA-MB-231 cells = experiment: breast cancer cell proliferation; assay type: cell-based
From the text: (§1) The inhibitory effects of LXR ligands in breast cancer cells have been shown previously. […] The observed decreases in LXR protein levels were not affected by proteasome inhibitor MG132.

PDAC cells = experiment: enzymatic assay of glutamate levels; assay type: cell-based, human
Experimental: To further characterize the mechanisms of action of novel LXR modulators 1E5 and 3A4, metabolomic and transcriptomic analysis of pancreatic cancer cells were conducted in response to treatment. […] PDAC tumors have altered metabolism to support its growth and survival. Previous studies have reported that Kras upregulates the non-canonical use of glutamine to maintain NADPH/NADP+ ratio which in turn regulates redox homeostasis. This unconventional use of glutamine by PDAC cells fuel cancer cell proliferation and survival. Glutamine metabolism in PDAC has two unique functions: 1. Glutamine-derived Glutamate is used for glutathione (GSH) biosynthesis. 2. Glutamine facilitates generation of reducing equivalents in the form of NADPH. In PDAC mitochondria, glutamine is converted to glutamate by glutaminase enzyme (GLS1). This glutamine derived glutamate is conventionally converted to alpha-ketoglutarate by glutamate dehydrogenase (GLUD1) to fuel citric acid cycle. However, in PDAC cells glutamate is converted to aspartate in cytosol which is converted to malic acid and NADPH is produced during this process. This process is essential to maintain redox homeostasis in the tumor. However, this non-canonical use of glutamine is dispensable in non-malignant cells. […]

[1] = system: genes involved in ferroptosis; experiment: quantitative PCR of genes involved in ferroptosis; assay type: cell-based, human
From the text: Expression profiles of ferroptosis genes in RNAseq data following 1E5 treatment were also consistent with its pro-ferroptotic actions. […] Polyamines are amino-acid derived polycationic alkylamines that are required for the growth of cells. SAT1 catalyzes the acetylation of spermidine and spermine to form N-acetylspermidine and N-acetylspermine respectively. […] SAT1 induces ferroptosis by upregulating the peroxidation of PUFA arachidonic acid. Ceramides are sphingolipids consisting of sphingosine and fatty acid acyl chain. Cellular stress leads to upregulation of ceramide synthesis which mediate caspase-dependent apoptosis. Accumulation of ceramides/hexosylceramides in the mitochondria leads to the formation of channel like structures in the mitochondrial outer membrane which increases the permeability of pro-apoptotic proteins such as cytochrome c. ER stress is also known to activate de-novo synthesis of ceramides and induce apoptosis by increasing the flow of Ca ions and upregulating the unfolded protein stress response.

PDAC cell lines = experiment: tetrazolium salt reduction (WST) assay in PDAC cell lines; assay type: cell-based, human; settings: WST screen, three human pancreatic cancer cell lines
Experimental: To determine the effects of LXR ligands on PDAC cell proliferation, cells were treated with synthetic LXR agonist GW3965 and live cells were quantified using trypan blue exclusion assays. […] FIGS. 8A, 8B, and 8C show dose-dependent decreases in cell proliferation in BxPC-3, Mia-PaCa-2, and PANC-1, respectively upon treatment with increasing GW3965 concentrations. […] Clonogenic assays were also employed to evaluate the effects of long-term LXR ligand treatment on cell proliferation and colony formation. […] These findings indicate that LXRs are involved in PDAC cell proliferation and targeting LXRs with ligands perturb their normal functions in cell proliferation.
The initial identification and subsequent characterization of the two novel LXR ligands and their derivative compounds was carried out in screens in three human pancreatic cancer cell and one non-transformed human pancreatic epithelial cell line in three or more replicate experiments for each cell line using the WST tetrazolium salt reduction assays.

[2] = system: LXR proteins in MCF-7 cells; experiment: western blot of LXR protein levels; assay type: cell-based
From the text: as §1

LXR in MDA-MB-231 cells = experiment: western blot of LXR protein levels; assay type: cell-based
From the text: as §1

KPC tumor cells = experiment: growth of KPC tumor cells from mouse model of PDAC; assay type: cell-based
From the text: The effects of the ligands and derivatives on the growth of PDAC cells were further validated by cell counting and clonogenic assays.

LXR proteins = molecular target: T1, LXR proteins (Homo sapiens, UniProt P55055); experiment: LXR protein levels after long-term treatment of pancreatic cancer cells; assay type: cell-based; settings: long-term treatments
T1 construct: expression of LXR proteins in different pancreatic cancer cell lines following long-term treatments; endogenous in cells; host or cells: pancreatic cancer cell lines (BxPC-3, MIA PaCa-2, PANC-1 named elsewhere)
Experimental: To elucidate mechanisms of inverse agonism by the novel ligands, TR-FRET experiments were conducted to determine the effects of 1E5 and 3A4 on the recruitment of NR co-activators and co-repressors. […] In addition to their functions as inverse agonists, extended treatments with 1E5 and 3A4 also destabilized or decreased LXR proteins.

T1 sequence (P55055 whole entry): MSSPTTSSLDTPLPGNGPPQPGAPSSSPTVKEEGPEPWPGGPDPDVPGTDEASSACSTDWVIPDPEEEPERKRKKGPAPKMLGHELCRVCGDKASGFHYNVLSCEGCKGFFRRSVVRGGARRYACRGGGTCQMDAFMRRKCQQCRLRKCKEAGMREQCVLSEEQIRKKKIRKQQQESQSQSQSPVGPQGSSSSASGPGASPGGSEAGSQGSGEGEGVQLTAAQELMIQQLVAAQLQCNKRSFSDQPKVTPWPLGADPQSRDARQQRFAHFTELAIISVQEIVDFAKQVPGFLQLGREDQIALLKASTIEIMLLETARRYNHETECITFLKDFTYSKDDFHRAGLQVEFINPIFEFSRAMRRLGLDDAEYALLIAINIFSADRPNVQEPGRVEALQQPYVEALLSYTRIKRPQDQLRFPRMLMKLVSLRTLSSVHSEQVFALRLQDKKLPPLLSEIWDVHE

For `O=c1cc(-c2ccccc2)nc(Nc2cccc(C(F)(F)F)c2)[nH]1` [Compound 1E5, 6-phenyl-2-{[3-(trifluoromethyl)phenyl]amino}-3,4-dihydropyrimidin-4-one], the “proliferation of MDA-MB-231 cells” value (MDA-MB-231 cells) was “inhibited”, the “glutamate levels, combination treatment with BPTES” value (PDAC cells; 1E5 plus glutaminase inhibitor BPTES) was “synergistic effects on reducing the glutamate levels” and the “intracellular levels of glutamate” value (PDAC cells; treated for 48 hours) was “significantly reduced”. The “expression of GPX4 and other negative regulators of ferroptosis (STMN1, RRM2)” value [1] was “decreased the expression”, the “expression of SAT1” value [1] was “increases the expression” and the “human pancreatic cancer cells growth” value (PDAC cell lines) was “effective in inhibiting human pancreatic cancer cells growth”. For the same compound, the “LXR protein levels (degradation)” value [2] was “act as degraders of LXR proteins”, the “LXR protein levels (degradation)” value (LXR in MDA-MB-231 cells) was “degraded LXR” and the “growth of KPC tumor cells” value (KPC tumor cells) was “blocked the growth”. For the same compound, the LXR protein levels (LXR proteins) was “decreased LXR protein levels”.
